These results are taken from patent US20240408053A1, “ENTERITIS-SUPPRESSING COMPOSITION” (KOBE GAKUIN EDUCATIONAL FOUNDATION, priority 2021, published 2024).

Each structure is given as a SMILES string.

Data set [1] concerns IL-6. As to the kind of experiment: IL-6 expression in colon tissue (qRT-PCR, ELISA). The following applies: group ES: 2.0% v/v ethanol diet + 2.5 mg sesaminol per day oral, 2 weeks, vs group E; higher than group C. The class given is in vivo, mice. From the text:
It has been reported that chronic consumption of an excessive amount of ethanol can induce inflammation associated with tumor formation in colon tissue. Therefore, in order to verify whether oral administration of sesaminol has a preventive effect on ethanol-induced colitis, the expression levels of inflammatory cytokines (TNF-α and IL-6) and chemokine (MCP-1) in the large intestinal lamina propria of the mice in the four groups (groups C, S, E, and ES) were examined by qRT-PCR and ELISA. The NF-κB activity in the mice in the four groups was also examined. NF-κB is a transcription factor that is involved in expression of genes regulating inflammation and is activated by exposure of immune cells to pro-inflammatory factors.
Total RNA was extracted from colon tissue samples. […]
A colon tissue sample (100 mg) was homogenized in 1 mL of an M-PER mammalian protein extraction reagent (Pierce) containing a diluent of a protease inhibitor cocktail (Nacalai Tesque, Inc.), and the resulting homogenate was centrifuged at 20,000× g at 4° C. for 15 minutes. The protein concentration of the supernatant was measured with a protein assay reagent (Bio-Rad Laboratories, Inc.), and equal amounts of proteins were used for analysis of the expression levels of TNF-α, IL-6, and MCP-1 by ELISA.
Background: Real-time PCR tracks product formation cycle by cycle.

Data set [2] deals with claudin-1. The experiment in a line: Western blotting of claudin-1 in colon tissue. The following applies: group ES: 2.0% v/v ethanol diet + 2.5 mg sesaminol per day oral, 2 weeks, vs group E; lower than group C. The class given is in vivo, mice. From the text: (§1) Acetaldehyde, which accumulates during ethanol metabolism, is known to disrupt intestinal tight junctions (TJs) via dissociation of colonic epithelium TJ proteins (ZO-1, occludin, and claudin-1) from the cytoskeleton. […] Therefore, whether oral administration of sesaminol would affect ethanol-induced intestinal barrier dysfunction was examined by analyzing the expression levels of colonic epithelial TJ proteins and the plasma LPS level in the mice in the four groups (groups C, S, E, and ES).
(§2) WB was performed in the same manner as in Example 4 above. The following primary antibodies were used. • Anti-mouse zonula occludens-1 protein (ZO-1) rabbit polyclonal antibody • Anti-mouse occludin rabbit polyclonal antibody • Anti-mouse claudin-1 rabbit polyclonal antibody
(In general: A western blot detects proteins with antibodies after separation by electrophoresis.)

Data set [3] in a line: TG amount in the liver, 4 weeks. The class given is in vivo, mice. The conditions noted are these: mean ±SD. How it is done:
The liver function and plasma lipid level in the mice in each group were examined by measuring the percentage of the liver weight relative to the body weight, the triglyceride (TG) concentration in the liver, the aspartate aminotransferase (AST) activity in the plasma, the alanine aminotransferase (ALT) activity in the plasma, and the TG concentration in the plasma of the mice in each group.
Each liver was homogenized at 4° C., and TG was extracted according to the product protocol of a reagent kit for TG extraction from tissue (Lipid Droplet Isolation Kit, produced by Cell Biolabs, Inc.). The amounts of TG and protein in each extracted sample were quantified according to the product protocol of each measuring reagent and converted to the TG amount (mg) per protein (g) for evaluation.

The subject of data set [4] is 8-OHdG. The experiment in a line: 8-OHdG level in colon tissue (immunohistochemical staining, ELISA). The class given is in vivo, mice. The following applies: group ES: 2.0% v/v ethanol diet + 2.5 mg sesaminol per day oral, 2 weeks, group E highest. From the text: The present inventors have previously reported that chronic oral administration of ethanol to mice increases oxidative stress in colon tissue (NPL 13). Therefore, in order to verify the effect of oral administration of sesaminol on oxidative stress in the colon induced by chronic oral consumption of ethanol, the levels of oxidative stress markers (8-hydroxy-2′-deoxyguanosine (8-OHdG), malondialdehyde (MDA), and 4-hydroxyalkenals (HAE)) were examined in colon tissue of the mice in groups C, S, E, and ES.
The level of 8-OHdG, which is an oxidative stress marker in tissue, was examined by immunohistochemical staining and ELISA.
Immunostained tissue specimens were prepared in the same manner as the method described above, except that the primary antibody was rabbit anti-8-OHdG monocolonal antibody.
A colon tissue sample (50 mg) was homogenized in 1 mL of DNAzol reagent, and the resulting homogenate was centrifuged at 20,000× g at 4° C. for […]. DNA was then isolated from the supernatant by ethanol precipitation and treated with an 8-OHdG assay preparation reagent set (FUJIFILM Wako Pure Chemical
Corporation). Equal amounts of the extracted DNA were used for analysis of the 8-OHdG level using an OxiSelect oxidative DNA damage ELISA kit (Cell Biolabs, Inc.).
A general note: In an ELISA, binding on a coated surface is turned into a signal by an enzyme label.

The subject of data set [5] is fecal mucin. The experiment in a line: Amount of fecal mucin of mice. The class given is in vivo. The following applies: group ES: 2.0% v/v ethanol diet + 2.5 mg sesaminol per day oral, 4 weeks, vs group E; level similar to group C. From the text:
The effect of oral administration of sesaminol on the amount of mucus secretion in mouse colon was examined by measuring the amount of fecal mucin of the mice in each group (groups C, E, S, and ES) and the amount of secretory immunoglobulin A (sIgA) in the colon tissue of the mice.
Fecal samples were each freeze-dried overnight in a freeze-drying equipment and then formed into a powder. After weighing each of the dried, powdered feces, fecal mucin was quantified according to the product protocol of a reagent kit for measuring fecal mucin (Fecal Mucin Assay Kit, produced by Cosmo Bio Co., Ltd.), and converted to the mucin amount (ug) per amount of dry feces (g). The results were evaluated.

The test system of data set [6] is ethanol-induced lesion in mouse liver. The experiment in a line: HE or Oil Red O staining of liver sections (ethanol-induced alcoholic steatohepatitis). The class given is in vivo, mice. The conditions noted are these: group ES: 2.0% v/v ethanol diet + 2.5 mg sesaminol per day oral, 4 weeks; group E significant increase. From the text: Additionally, liver sections of the mice in each group (groups C, E, S, and ES) were stained with HE or Oil Red 0, and observed under a microscope.
Liver tissue samples were each fixed in a 10% v/v neutral formaldehyde solution overnight at room temperature and paraffin-embedded. The liver tissue sections were then stained with HE reagent, and frozen tissue sections were stained with Oil Red O reagent. Each stained specimen was observed under a microscope and subjected to image analysis.

For data set [7], the system named is LPS. The experiment in a line: Plasma LPS level, 4 weeks. The class given is in vivo, mice. The conditions noted are these: group ES: 2.0% v/v ethanol diet + 2.5 mg sesaminol per day oral, vs group E, level similar to groups C and S. The protocol:
The plasma LPS concentration was measured with a limulus amebocyte lysate (LAL) assay.
Next, in order to verify the longer-term effect of oral administration of sesaminol on ethanol-induced intestinal tight junction (TJ) dysfunction and leaky gut, histological analysis of colonic epithelial TJ proteins (ZO-1, Occludin, and Claudin-1) and analysis of the plasma LPS level were performed using the mice in each group (groups C, S, E, and ES) described in Example 7. Histological analysis was performed by immunofluorescence staining with anti-ZO-1, anti-Occludin, and anti-Claudin-1 antibodies, followed by observation under a fluorescence microscope. The Plasma LPS level was measured according to the method described in Example 6.

Data set [8] has as its system ZO-1. The experiment in a line: Western blotting of ZO-1 in colon tissue. The class given is in vivo, mice. The conditions noted are these: group ES: 2.0% v/v ethanol diet + 2.5 mg sesaminol per day oral, 2 weeks, vs group E; lower than group C.
Excerpt: as §1, §2

On to `Oc1cc2c(cc1C1OCC3C(c4ccc5c(c4)OCO5)OCC13)OCO2` (stereo not drawn) [Sesaminol], for which the “expression level of IL-6 (mRNA by qRT-PCR, protein by ELISA)” value in data set [1] was “significantly lower than those in group E”. Besides, the “expression level of claudin-1” value in data set [2] was “significantly higher than those in group E”. Besides, the “Liver TG” value is reported as 51.8 ± 9.5 mg/g of protein in data set [3] (EtOH (2.0% v/v) + Sesaminol group ES) and 38.1 ± 12.4 mg/g of protein in data set [3] (Sesaminol (2.5 mg/d) group S). Besides, the “8-OHdG level in colon tissue” value in data set [4] was “next highest level”. For the same compound, the “amount of fecal mucin” value in data set [5] was “significantly higher than that in group E”. In addition, the “lipid droplets in Oil Red O-stained liver tissue” value in data set [6] is “decrease in lipid droplets”. The “plasma LPS concentration” value in data set [7] was “significant and considerable decrease in the plasma LPS concentration compared with group E”. Also, the “expression level of ZO-1” value in data set [8] was “significantly higher than those in group E”.
